In the first test the test system is FPDH. Briefly: Specificity of FPDH: reducing activity against various carbonyl compounds as substrates. The test is classed as biochemical, Candida maris IFO 10003. To be noted: substrate 1 mM; 5-acetylfuro[2,3-c]pyridine = 100%; 0.25 mM NADH, pH 6.5, 30° C. As to the method: In the practice of the invention, the reducing activity of the enzyme is determined by carrying out the reaction in 3.0 ml of a reactant mixture containing 1 mM substrate, 0.25 mM coenzyme NADH, 0.3% (vol/vol) dimethyl sulfoxide and an enzyme solution in 100 mM phosphate buffer (pH 6.5) at 30° C. for 3 minutes and then measuring the reduction in absorbance at 340 nm.
The term “very low in reducing activity” referring to the specificity means that when the reducing activity against 5-acetylfuro[2,3-c]pyridine is taken as 100%, the reducing activity against the substrate in question is not more than 10%. The term “carbocyclic ketones” means ketones, such as cyclohexanone and cyclopentanone, derived from alicyclic compounds by substituting —C(═O)— for a ring constituent —CH2— thereof.
Hereafter, the reducing activity was measured by allowing the reaction to proceed at 30° C. for 3 minutes in 3.0 ml of a reaction mixture containing 1 mM 5-acetylfuro[2,3-c]pyridine (substrate), 0.25 mM NADH, 0.3% (vol/vol) dimethyl sulfoxide and 0.05 ml of the enzyme solution in 100 mM phosphate buffer (pH 6.5) and measuring the decrease in absorbance at the wavelength 340 nm. These conditions were employed as standard reaction conditions for reducing activity measurement. The enzyme activity oxidizing 1 μmole of NADH to NAD^+ in one minute under these reaction conditions was defined as 1 unit.
The reducing activity of FPDH was examined against various compounds. Activity measurements were conducted under the standard reaction conditions for reducing activity measurement using various carbonyl compounds shown in Table 8 and Table 9 as substrates in lieu of 5-acetylfuro[2,3-c]pyridine. In Table 8 and Table 9, the results are shown in terms of relative activity with the reducing activity when 5-acetylfuro[2,3-c]pyridine was used as the substrate being taken as 100%. As a result, FPDH had reducing activity against ketones and aldehydes but the reducing activity thereof was very low against carbocyclic ketones and the ketone in position α to a carboxyl group.
For the compound `CC(=O)C1CCCCC1=O` (stereo not drawn) [1-Acetylcyclohexanone], the “Relative activity (reducing activity, Table 8)” value is recorded as 68%.

Turning to `CC(=O)C1CCCC1=O` (stereo not drawn) [1-Acetylcyclopentanone], the “Relative activity (reducing activity, Table 8)” value is on record as 86%.

For the compound `CC(=O)c1cc2ccoc2c(Cl)n1` [1-Chloro-5-acetylfuro[2,3-c]pyridine], the “Relative activity (reducing activity, Table 8)” value was found to be 66%.

With `O=C1CCCc2ccccc21` [1-Tetralone], the “Relative activity (reducing activity, Table 9)” value was 2%.

In the case of `O=C(CCl)c1cccc(Cl)c1` [2,3′-Dichloroacetophenone], the “Relative activity (reducing activity, Table 8)” value came to 19%.

On to `CC(=O)c1ccco1` [2-Acetylfuran], for which the “Relative activity (reducing activity, Table 8)” value is listed as 43%.

For the compound `CC(=O)c1ccccn1` [2-Acetylpyridine], the “Relative activity (reducing activity, Table 8)” value is on record as 111%.

Take `CC(=O)c1ccc[nH]1` [2-Acetylpyrrole]: the “Relative activity (reducing activity, Table 8)” value turned out to be 100%.

Turning to `CC(=O)c1nccs1` [2-Acetylthiazole], the “Relative activity (reducing activity, Table 8)” value was 86%.

On to `CC(=O)c1cccs1` [2-Acetylthiophene], for which the “Relative activity (reducing activity, Table 8)” value is 77%.

With `CCC(C)=O` [2-Butanone], the “Relative activity (reducing activity, Table 8)” value is 94%.

With `CCCCC(C)=O` [2-Hexanone], the “Relative activity (reducing activity, Table 8)” value is recorded as 38%.

In the case of `O=C(CO)c1ccccc1` [2-Hydroxyacetophenone], the “Relative activity (reducing activity, Table 8)” value is 54%.

Consider `CCCC(=O)C(=O)O` [2-Keto-n-valeric acid], for which the “Relative activity (reducing activity, Table 9)” value is 7%.

`CCC(=O)C(=O)O` [2-Ketobutyric acid]: the “Relative activity (reducing activity, Table 9)” value stood at 5%.

As to `CCCCCCC(C)=O` [2-Octanone], the “Relative activity (reducing activity, Table 8)” value was found to be 38%.

For `CCCC(C)=O` [2-Pentanone], the “Relative activity (reducing activity, Table 8)” value worked out at 67%.

For the compound `O=C1CCc2ccccc2C1` [2-Tetralone], the “Relative activity (reducing activity, Table 9)” value worked out at 0%.

For the compound `CC(=O)c1cccnc1` [3-Acetylpyridine], the “Relative activity (reducing activity, Table 8)” value came to 107%.

With `CC(=O)c1ccncc1` [4-Acetylpyridine], the “Relative activity (reducing activity, Table 8)” value is listed as 130%.

On to `CC(=O)c1cc2ccoc2cn1` [5-Acetylfuro[2,3-c]pyridine], for which the “Relative activity (reducing activity, Table 8)” value was found to be 100%.

Turning to `CC=O` [Acetaldehyde], the “Relative activity (reducing activity, Table 9)” value is 36%.

On to `CC(=O)C(C)O` (stereo not drawn) [Acetoin], for which the “Relative activity (reducing activity, Table 8)” value was 43%.

On to `CC(C)=O` [Acetone], for which the “Relative activity (reducing activity, Table 8)” value is recorded as 40%.

As for `CC(=O)c1ccccc1` [Acetophenone], the “Relative activity (reducing activity, Table 8)” value stood at 88%.

As for `CC(=O)CC(C)=O` [Acetylacetone], the “Relative activity (reducing activity, Table 8)” value is 123%.

Turning to `CC(=O)c1cnccn1` [Acetylpyrazine], the “Relative activity (reducing activity, Table 8)” value amounted to 133%.

With `O=Cc1ccccc1` [Benzaldehyde], the “Relative activity (reducing activity, Table 9)” value came to 94%.

For `CC(=O)CCc1ccccc1` [Benzylacetone], the “Relative activity (reducing activity, Table 8)” value is 96%.

As to `CC12CCC(C(=O)C1=O)C2(C)C` (stereo not drawn) [Camphorquinone], the “Relative activity (reducing activity, Table 9)” value stood at 3%.

With `O=C1CCCCCC1` [Cycloheptanone], the “Relative activity (reducing activity, Table 9)” value came to 4%.

Consider `O=C1CCCCC1` [Cyclohexanone], for which the “Relative activity (reducing activity, Table 9)” value amounted to 4%.

Regarding `O=C1CCCC1` [Cyclopentanone], the “Relative activity (reducing activity, Table 9)” value was 3%.

Take `CC(=O)C(C)=O` [Diacetyl]: the “Relative activity (reducing activity, Table 8)” value amounted to 107%.

On to `CCC(=O)CC` [Diethyl ketone], for which the “Relative activity (reducing activity, Table 8)” value came to 22%.

With `CCOC(=O)C(Cl)C(C)=O` (stereo not drawn) [Ethyl 2-chloroacetoacetate], the “Relative activity (reducing activity, Table 9)” value is 88%.

Take `CCOC(=O)CC(C)=O` [Ethyl acetoacetate]: the “Relative activity (reducing activity, Table 9)” value was found to be 141%.

With `CCOC(=O)C(C)=O` [Ethyl pyruvate], the “Relative activity (reducing activity, Table 8)” value is given as 133%.

As for `COC(=O)CC(C)=O` [Methyl acetoacetate], the “Relative activity (reducing activity, Table 9)” value is listed as 128%.

`CC(=O)CC(C)C` [Methyl isobutyl ketone]: the “Relative activity (reducing activity, Table 8)” value is on record as 14%.

Turning to `CC(=O)C(C)C` [Methyl isopropyl ketone], the “Relative activity (reducing activity, Table 8)” value is 43%.

As for `COC(=O)C(C)=O` [Methyl pyruvate], the “Relative activity (reducing activity, Table 8)” value stood at 132%.

Turning to `O=C(O)CC(=O)C(=O)O` [Oxalacetic acid], the “Relative activity (reducing activity, Table 9)” value is 4%.

Consider `CCC=O` [Propionaldehyde], for which the “Relative activity (reducing activity, Table 9)” value is on record as 70%.

Regarding `O=Cc1ccccn1` [Pyridine-2-aldehyde], the “Relative activity (reducing activity, Table 9)” value is listed as 54%.

On to `O=Cc1cccnc1` [Pyridine-3-aldehyde], for which the “Relative activity (reducing activity, Table 9)” value stood at 47%.

On to `O=Cc1ccncc1` [Pyridine-4-aldehyde], for which the “Relative activity (reducing activity, Table 9)” value is 64%.

In the case of `CC(=O)C(=O)O` [Pyruvic acid], the “Relative activity (reducing activity, Table 9)” value was determined as 3%.

For the compound `CC(=O)c1cccc(Cl)c1` [m-Chloroacetophenone], the “Relative activity (reducing activity, Table 8)” value amounted to 120%.

For `O=Cc1cccc(Cl)c1` [m-Chlorobenzaldehyde], the “Relative activity (reducing activity, Table 9)” value was determined as 111%.

Regarding `CC(=O)c1cccc([N+](=O)[O-])c1` [m-Nitroacetophenone], the “Relative activity (reducing activity, Table 8)” value worked out at 136%.

In the case of `O=Cc1cccc([N+](=O)[O-])c1` [m-Nitrobenzaldehyde], the “Relative activity (reducing activity, Table 9)” value turned out to be 103%.

Regarding `CCCC=O` [n-Butyr aldehyde], the “Relative activity (reducing activity, Table 9)” value is 123%.

For `CCCCCC=O` [n-Hexyl aldehyde], the “Relative activity (reducing activity, Table 9)” value is 71%.

`CC(=O)c1ccccc1Cl` [o-Chloroacetophenone]: the “Relative activity (reducing activity, Table 8)” value is 9%.

For `O=Cc1ccccc1Cl` [o-Chlorobenzaldehyde], the “Relative activity (reducing activity, Table 9)” value is 0%.

Take `O=Cc1ccccc1[N+](=O)[O-]` [o-Nitrobenzaldehyde]: the “Relative activity (reducing activity, Table 9)” value was 9%.

Regarding `CC(=O)c1ccc(Cl)cc1` [p-Chloroacetophenone], the “Relative activity (reducing activity, Table 8)” value was 88%.

Turning to `O=Cc1ccc(Cl)cc1` [p-Chlorobenzaldehyde], the “Relative activity (reducing activity, Table 9)” value came to 104%.

Consider `CC(=O)c1ccc(F)cc1` [p-Fluoroacetophenone], for which the “Relative activity (reducing activity, Table 8)” value is listed as 88%.

Regarding `CC(=O)c1ccc([N+](=O)[O-])cc1` [p-Nitroacetophenone], the “Relative activity (reducing activity, Table 8)” value is reported as 116%.

On to `O=Cc1ccc([N+](=O)[O-])cc1` [p-Nitrobenzaldehyde], for which the “Relative activity (reducing activity, Table 9)” value came to 162%.

Another test deals with FPDH. The test is described as follows: Behaviors of FPDH against inhibitors (reducing activity measurement with added compounds and metal salts). The test is classed as biochemical, Candida maris IFO 10003. To be noted: inhibitor 0.01 mM; activity without inhibitor = 100%; 1 mM 5-acetylfuro[2,3-c]pyridine, 0.25 mM NADH, pH 6.5, 30° C.
For the compound `O=C(O)c1cc(SSc2ccc([N+](=O)[O-])c(C(=O)O)c2)ccc1[N+](=O)[O-]` [DTNB], the Relative activity is recorded as 98%.

Take `O=c1c(O)c(-c2ccc(O)c(O)c2)oc2cc(O)cc(O)c12` [Quercetin]: the Relative activity is reported as 78%.

Still in this test, the particulars now being: inhibitor 0.1 mM; activity without inhibitor = 100%; 1 mM 5-acetylfuro[2,3-c]pyridine, 0.25 mM NADH, pH 6.5, 30° C.
`O=C(O)c1cc[c]([Hg][Cl])cc1` [p-Chloromercuribenzoic acid]: the Relative activity came to 100%.

Staying with this test, now noted: inhibitor 1.0 mM; activity without inhibitor = 100%; 1 mM 5-acetylfuro[2,3-c]pyridine, 0.25 mM NADH, pH 6.5, 30° C.
Take `O[C@H](CS)[C@H](O)CS` (racemic) [Dithiothreitol]: the Relative activity is 93%.

`c1cnc2c(c1)ccc1cccnc12` [1,10-Phenanthroline]: the Relative activity is given as 98%.

For `OCCS` [2-Mercaptoethanol], the Relative activity turned out to be 94%.

Take `O=S(=O)([O-])[O-].[Cu+2]` [CuSO4]: the Relative activity was 103%.

With `O=C(O)CN(CCN(CC(=O)O)CC(=O)O)CC(=O)O` [EDTA], the Relative activity is listed as 98%.

On to `[Cl][Hg][Cl]` [HgCl2], for which the Relative activity turned out to be 0%.

As for `O=S(=O)([O-])[O-].[Mg+2]` [MgSO4], the Relative activity amounted to 81%.

As for `[Cl][Mn][Cl]` [MnCl2], the Relative activity was 76%.

As to `CCN1C(=O)C=CC1=O` [N-ethylmaleimide], the Relative activity is on record as 84%.

Take `O=S(=O)([O-])[O-].[Zn+2]` [ZnSO4]: the Relative activity came to 74%.

Still in this test, the particulars now being: pH 6.5.
In the case of `[Cl-].[Cl-].[Co+2]` [CoCl2], the Relative activity was determined as 85%.

Take `O=C(O)CI` [Iodoacetic acid]: the Relative activity was 80%.

The same test, now with this note: standard reaction conditions for reducing activity measurement.
For the compound `[Hg+2]` [mercury ion], the “Inhibition of the enzyme activity (in words)” value was “inhibited”.

Values taken from patent US7329518B2, “Enzyme for producing optically active pyridineethanol derivatives” (Kaneka Corporation, priority 1999, dated 2008).
